From patent publication US20220347279A1, “VCX/Y PEPTIDES AND USE THEREOF” (BOARD OF REGENTS, THE UNIVERSITY OF TEXAS SYSTEM, priority 2019, published 2022)

How the values were obtained:
Format in all cases: cell-based
VCX54 TCR-T cells [1] = assay: Overlap peptide library screening: peptide-pulsed T2 cells co-cultured with VCX54 TCR-T, ICS of activation markers; settings: peptide pulsed to T2 cells, overnight co-culture
Method: Overlap peptide library screening was performed for the recognition target peptide of VCX54 TCR-T cells (FIG. 1). The 9-mer peptide with 8 amino acid overlap peptide library covering the whole length of VCX3A protein was screened for the VCX54 TCR-T cell recognized target. The peptide was pulsed to T2 cell one by one and co-cultured with VCX54 TCR-T. After overnight culturing, the activated marker of T cells such as CD137, CD69, IFN-r and TNFa were detected using intracellular cytokine staining (ICS).
(§1) Intracellular cytokine staining (ICS) assay: The T cells were incubated with target cells at 10:1 ration in the presence of brefeldin A (BFA) at 37° C. overnight. After co-culturing, the T cells were harvested and washed. The cells were stained with flow antibody anti surface marker first. After that, the cells were washed and fixed with Fix Buffer and then were permeabilized using Permeabilizing Solution (eBioscience). Permeabilized cells are then stained with intracellular cytokine flow antibody. Finally, the level of cytokine producing in the cells was analyzed using FACS.

VCX54 TCR-T cells [2] = assay: VCX118 peptide cross reaction detection (peptide titration on T2 cells, ICS); settings: T2 cells pulsed with high concentration of peptide
Method: For VCX118 peptide cross reaction detection, different concentration of VCX118 peptide were used to pulse T2 cells and then co-cultured with VCX54 TCR-T cells. […] M26 peptide was used as a negative control (FIG. 2).
as §1

VCX54 TCR-T cells [3] = assay: Peptide titration killing assay (calcein-AM quenching assay); settings: peptide-pulsed T2 cells labeled with Calcein-AM, high concentrations
Description: Different concentrations of VCX118 peptide were pulsed to T2 cells, labeled with Calcein-AM, and co-cultured with VCX54 TCR-T cells. The calcein-AM quenching assay was used to detect VCX54 TCR-T killing ability in response to the antigen.

HLA-A2 = molecular target: T1, HLA-A2 (Homo sapiens, UniProt P04439, D140Y/D185E/D98H/E176V/E277Q/G131W/G231S/I119V/I121R/I166T/I218V/L300P/L318F/N151K/N90K/P208A/P217A/Q86G/Q94H/R138H/R169H/T345S); assay: VCX118 peptide HLA-A2 binding assay (HLA-A2 stability analysis on T2 cells); settings: T2 cells pulsed with different concentrations of peptide
T1 construct: endogenous in cells; host or cells: T2 cells
Method: Different concentrations of VCX118 peptide were pulsed to T2 cells, and the HLA-A2 stability analysis was performed to detect the VCX118 peptide binding ability. VCX54, M26 and M27 peptide were used as control.

VCX54 TCR-T cells [4] = assay: VCX54 TCR-T recognition of longer peptides comprising VCX118 (ICS); settings: peptides pulsed to T2 cells, co-cultured with VCX54 TCR-T cells
Method: Different length of peptides with VCX118 were pulsed to T2 cells and co-cultured with VCX54 TCR-T cells. The VCX118 peptide was used as a control.
as §1

Row | binding ability to HLA-A2 (HLA-A2) | Substance | induction of response of VCX54 TCR-T (CD137, CD69, IFN-r, TNFa by ICS) (VCX54 TCR-T cells [1]) | ICS response relative to VCX54 original peptide (VCX54 TCR-T cells [2]) | cross recognition by VCX54 TCR-T (ICS) (VCX54 TCR-T cells [2]) | VCX54 TCR-T killing response relative to VCX54 peptide (VCX54 TCR-T cells [3]) | recognition by VCX54 TCR-T cells (ICS) (VCX54 TCR-T cells [4])
1 | weak binding ability | SEVEEPLSQ (listed as Homo sapiens) [VCX118, 9-mer VCX/Y peptide shared with all VCX/Y family members] | also be able to induce the response of VCX54 TCR-T cells | higher than the VCX54 original peptide | cross recognized by VCX54 TCR-T | higher than the VCX54 peptide | only recognized the VCX118 peptide
2 | – | VCX54: the target (original) 9-mer peptide of VCX3A recognized by VCX54 TCR-T cells; sequence not printed (GAATKMAAV) [reference compound] | able to induce the response of VCX54 TCR-T | – | – | – | –
